From US7470724B2, “Phosphonate compounds having immuno-modulatory activity” (Gilead Sciences, Inc., priority 2003, dated 2008)

Experiment: Pro-drug cleavage by human PBMC extracts
Type: in vitro ADME
Details: cleavage rate per μg protein; 30 μM substrate, pH 6.5, 37° C., 10-120 minutes; disappearance of pro-drug by HPLC at 260 nm
Procedure: Fresh human PBMCs were obtained from patients undergoing leukophoresis; cells were shipped in plasma and processed within 26 h of draw. Purification was achieved using the Ficoll-Paque method: PBMC cells were harvested by centrifugation at 1200×g for 5 minutes and washed three times by re-suspension in RBC lysis buffer (155 mM NH4Cl, 0.1 mM EDTA, 10 mM KHCO3). Washed cells were suspended in lysis buffer (0.2×10^9 cells in 1 ml of 10 mM Tris, pH 7.4, 150 mM NaCl, 20 mM CaCl2, 1 mM DTT and 1% NP40) and incubated on ice for 20 minutes. The PBMC crude extract was centrifuged at 1000×g for 30 min to remove unlysed cells and the supernatant at 100,000×g for 1 h. The 100,000×g supernatant (PBMC Extract: P0) was harvested, snap frozen in liquid nitrogen and stored at −70° C.
Reaction mixtures contained 25 mM MesNa (pH 6.5), 100 mM NaCl, 1 mM DTT, 0.1% NP-40, 30 μM substrate, and varying amounts of enzyme in a final volume of 100 μl. The enzymatic reaction is performed at 37° C. for 10-120 minutes and stopped at 3-4 individual time points by adding 180 μl of ice cold methanol. Samples are incubated @−20° C. for 30 min, and centrifuged 13,000 RPM for 30 min (@ 4° C.). The supernatant is transferred to a 96 well plate and evaporated under vacuum using a speedvac. The precipitate is dissolved in 100 μl of 20 mM CH3COONH4+5% AcCN. The disappearance of pro-drug is measured by HPLC, monitoring at 260 nm. The specific activity of the PBMC Extract against the prodrugs tested is defined as: v (cleavage rate)/μg protein=pmoles/min/μg.
For `CCOC(=O)C(C)NP(=O)(CCC(C)(C)CCn1cnc2c(=O)[nH]c(N)nc21)N[C@@H](C)C(=O)OCC` (stereo partly shown) [Example 130-2], the “Human PBMC extract specific activity” value was 0.65 pmol/min/µg.
With `CCOC(=O)C(C)NP(=O)(/C=C/c1ccccc1Cn1cnc2c(=O)[nH]c(N)nc21)N[C@@H](C)C(=O)OCC` (stereo partly shown) [Example 133-2] the “Human PBMC extract specific activity” value was 0.38 pmol/min/µg.
For `CCOC(=O)C(C)NP(=O)(/C=C/c1ccccc1Cn1cnc2c(=O)[nH]c(N)nc21)Oc1ccccc1` (stereo not shown) [Example 133-1], the “Human PBMC extract specific activity” value was 4.9 pmol/min/µg.
With `CCOC(=O)C(C)NP(=O)(CCC(C)(C)CCn1cnc2c(=O)[nH]c(N)nc21)Oc1ccccc1` (stereo not shown) [Example 130-1] the “Human PBMC extract specific activity” value was 3.48 pmol/min/µg.
